pEC50, pIC50: −log10 of the molar value. Numbered stars: 1 amine (or outer) side, 2 acyl side, 3 side chain; on linkers, the order of the positions; unused ones are H or OH. Bridge positions count the residues as written; N and C are the ends. Side chains are listed from the residue outwards. Peptide text beside a SMILES is read from it. * marks the point of attachment. C20 diacid = O=C(O)CCCCCCCCCCCCCCCCCCC(=O)*; γGlu = O=C(O)[C@H](CCC(=O)[*:2])N[*:1]
Columns and labels:
[1] = ASSAY (III) ThT fibrillation assay for physical stability; type: physicochemical
Outline: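 Formulations with 1 μM ThT, pH adjusted as required, incubated at 37 °C with 960 rpm orbital shaking; fluorescence (ex 444/em 485 nm) read every 20 min. Fibrillation reported as mean ThT fluorescence ± SD of 4–8 replicates at time points; polypeptide concentration measured by reverse-phase HPLC before and after, post-centrifugation.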

[2] = target: T1, human amylin receptor (membranes from Amylin 3(a)/CRE-luc cells) (Homo sapiens, UniProt O60896+P30988); assay: ASSAY (V) binding to the human amylin receptor (SPA, 125I-rat amylin); settings: for pIC50: Table 4, read-out: hAmylin-R bind IC50;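 on all read-outs here: competition binding of cell membranes (35 ng/µL) mixed with SPA beads in 384-well plates at 40 µL total volume, read by scintillation counting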
T1 construct: expressed in transfected cells
T1 sequence (P30988 25-474): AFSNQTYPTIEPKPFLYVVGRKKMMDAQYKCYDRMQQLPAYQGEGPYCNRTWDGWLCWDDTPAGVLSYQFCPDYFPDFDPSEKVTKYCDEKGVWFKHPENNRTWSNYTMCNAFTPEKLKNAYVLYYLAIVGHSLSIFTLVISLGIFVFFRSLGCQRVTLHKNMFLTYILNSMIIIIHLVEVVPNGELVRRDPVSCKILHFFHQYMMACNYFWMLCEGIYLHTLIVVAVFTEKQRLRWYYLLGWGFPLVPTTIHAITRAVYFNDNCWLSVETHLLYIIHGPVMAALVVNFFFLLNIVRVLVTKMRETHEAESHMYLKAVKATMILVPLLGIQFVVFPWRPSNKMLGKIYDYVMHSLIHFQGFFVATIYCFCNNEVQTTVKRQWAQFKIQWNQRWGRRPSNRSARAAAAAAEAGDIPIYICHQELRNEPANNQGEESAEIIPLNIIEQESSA
T1 sequence (O60896 24-148 partner): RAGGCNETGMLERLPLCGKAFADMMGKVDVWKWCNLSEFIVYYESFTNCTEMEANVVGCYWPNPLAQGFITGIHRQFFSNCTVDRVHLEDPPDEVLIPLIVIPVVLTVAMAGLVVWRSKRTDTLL

[3] = target: T2, human amylin 3(a) receptor (human calcitonin receptor + RAMP-3) in BHK570 cells (Homo sapiens, UniProt O60896+P30988); assay: ASSAY (II)a functional assay, human amylin receptor (CRE luciferase); type: cell-based; settings: for pEC50: human amylin receptor functional potency, assay (II), read-out: hAmylin-R funct. EC50
T2 construct: expressed in transfected cells
Outline: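 BHK cells stably carrying a CRE-luciferase reporter plus calcitonin receptor, or calcitonin receptor with RAMP-3 for the amylin 3(a) receptor, were seeded and kept overnight at 37° C. Compounds were added in assay medium with 10% FBS and 10 mM Hepes, pH 7.4, for 3 hours at 37° C, then luminescence was counted.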

[4] = Table 5, selectivity, hCTR bind IC50 / hAmylin-R bind IC50
[5] = Table 5a, selectivity, hCTR bind IC50 / hAmylin-R bind IC50
[6] = Table 5b, selectivity, hCTR bind IC50 / hAmylin-R bind IC50
[7] = Table 5c, selectivity, hCTR bind IC50 / hAmylin-R bind IC50
[8] = Table 7, human binding selectivity, included for comparison
[9] = Table 7a (preferred compounds), human binding selectivity, included for comparison
[10] = ratio of human calcitonin receptor binding IC50 to human amylin receptor binding IC50
[11] = hCTR funct. EC50 divided by hAmylin-R funct. EC50
[12] = hCTR funct. EC50 over hAmylin-R funct. EC50
[13] = human functional selectivity: hCTR funct. EC50 / hAmylin-R funct. EC50

ThT pH 4.0 lag time (h) [1] [h] | Ratio hCT/hAmylin binding [2, 4] | Ratio hCT/hAmylin binding [2, 5] | Ratio hCT/hAmylin binding [2, 6] | Ratio hCT/hAmylin binding [2, 7] | Ratio hCT/hAmylin binding [2, 8] | Ratio hCT/hAmylin binding [2, 9] | Ratio hCT/hAmylin binding [2, 10] | Ratio hCT/hAmylin funct. [3, 11] | Ratio hCT/hAmylin funct. [3, 12] | Ratio hCT/hAmylin funct. [3, 13] | pIC50 [2] | pEC50 [3] | SMILES
45 | 21.2 | 21.2 | 21.2 | 21.2 | 21.2 | 21.2 | 21.2 | 14.4 | 14.4 | 14.4 |  |  | CC[C@H](C)[C@H](NC(=O)[C@H](C)NC(=O)CNC(=O)[C@H](Cc1ccccc1)NC(=O)[C@H](CC(N)=O)NC(=O)[C@@H]1CCCN1C(=O)[C@H](CO)NC(=O)[C@H](CO)NC(=O)[C@H](Cc1c[nH]cn1)NC(=O)[C@H](CCCNC(=N)N)NC(=O)[C@H](CC(C)C)NC(=O)[C@H](Cc1ccccc1)NC(=O)[C@H](CCC(=O)O)NC(=O)[C@H](C)NC(=O)[C@H](CC(C)C)NC(=O)[C@H](CCCNC(=N)N)NC(=O)[C@H](CCC(N)=O)NC(=O)[C@@H](NC(=O)[C@H](C)NC(=O)[C@@H]1CSSC[C@H](NC(=O)[C@@H](N)CCCCNC(=O)CC[C@H](NC(=O)CCCCCCCCCCCCCCCCCCC(=O)O)C(=O)O)C(=O)N[C@@H](CC(N)=O)C(=O)N[C@@H]([C@@H](C)O)C(=O)N[C@@H](C)C(=O)N[C@@H]([C@@H](C)O)C(=O)N1)[C@@H](C)O)C(=O)N1CCC[C@H]1C(=O)N[C@@H](CO)C(=O)N[C@@H](CO)C(=O)N[C@H](C(=O)N[C@@H](CC(N)=O)C(=O)N[C@H](C(=O)NCC(=O)N1CCC[C@H]1C(=O)N[C@@H](Cc1c[nH]cn1)C(=O)N[C@H](C(=O)N[C@@H](Cc1ccc(O)cc1)C(N)=O)[C@@H](C)O)C(C)C)[C@@H](C)O [Example 118] (H-K([γGlu-C20 diacid])CNTATCATQRLAEFLRHSSPNFGAIPSSTNVGPHTY-NH2; disulfide 2-7)
10 | 48.6 | 48.6 | 48.6 | 48.6 | 48.6 | 48.6 | 48.6 | 26.0 | 26.0 | 26.0 | 9.06 | 9.48 | CC[C@H](C)[C@H](NC(=O)[C@H](C)NC(=O)CNC(=O)[C@H](Cc1ccccc1)NC(=O)[C@H](CC(N)=O)NC(=O)[C@@H]1CCCN1C(=O)[C@H](CO)NC(=O)[C@H](CO)NC(=O)[C@H](Cc1c[nH]cn1)NC(=O)[C@H](CCCNC(=N)N)NC(=O)[C@H](CC(C)C)NC(=O)[C@H](Cc1ccccc1)NC(=O)[C@H](CC(N)=O)NC(=O)[C@H](C)NC(=O)[C@H](CC(C)C)NC(=O)[C@H](CCCNC(=N)N)NC(=O)[C@H](CCC(N)=O)NC(=O)[C@@H](NC(=O)[C@H](C)NC(=O)[C@@H]1CSSC[C@H](NC(=O)[C@@H](N)CCCCNC(=O)CC[C@H](NC(=O)CC[C@H](NC(=O)CCCCCCCCCCCCCCCCCCC(=O)O)C(=O)O)C(=O)O)C(=O)N[C@@H](CC(N)=O)C(=O)N[C@@H]([C@@H](C)O)C(=O)N[C@@H](C)C(=O)N[C@@H]([C@@H](C)O)C(=O)N1)[C@@H](C)O)C(=O)N1CCC[C@H]1C(=O)N[C@@H](CO)C(=O)N[C@@H](CO)C(=O)N[C@H](C(=O)N1CCC[C@H]1C(=O)N[C@H](C(=O)NCC(=O)N1CCC[C@H]1C(=O)N[C@@H](CCCNC(=N)N)C(=O)N[C@H](C(=O)N[C@@H](Cc1ccc(O)cc1)C(N)=O)[C@@H](C)O)C(C)C)[C@@H](C)O [Example 119] (H-K([γGlu-γGlu-C20 diacid])CNTATCATQRLANFLRHSSPNFGAIPSSTPVGPRTY-NH2; disulfide 2-7)
14 | 45.3 | 45.3 | 45.3 | 45.3 | 45.3 | 45.3 | 45.3 | 8.1 | 8.1 | 8.1 | 10.12 | 9.96 | CC[C@H](C)[C@H](NC(=O)[C@H](C)NC(=O)CNC(=O)[C@H](Cc1ccccc1)NC(=O)[C@H](CC(N)=O)NC(=O)[C@@H]1CCCN1C(=O)[C@H](CO)NC(=O)[C@H](CO)NC(=O)[C@H](Cc1c[nH]cn1)NC(=O)[C@H](CCCNC(=N)N)NC(=O)[C@H](CC(C)C)NC(=O)[C@H](Cc1ccccc1)NC(=O)[C@H](CO)NC(=O)[C@H](C)NC(=O)[C@H](CC(C)C)NC(=O)[C@H](CCCNC(=N)N)NC(=O)[C@H](CCC(N)=O)NC(=O)[C@@H](NC(=O)[C@H](C)NC(=O)[C@@H]1CSSC[C@H](NC(=O)[C@@H](N)CCCCNC(=O)CC[C@H](NC(=O)CC[C@H](NC(=O)CCCCCCCCCCCCCCCCCCC(=O)O)C(=O)O)C(=O)O)C(=O)N[C@@H](CC(N)=O)C(=O)N[C@@H]([C@@H](C)O)C(=O)N[C@@H](C)C(=O)N[C@@H]([C@@H](C)O)C(=O)N1)[C@@H](C)O)C(=O)N1CCC[C@H]1C(=O)N[C@@H](CO)C(=O)N[C@@H](CO)C(=O)N[C@H](C(=O)N[C@@H](CC(N)=O)C(=O)N[C@H](C(=O)NCC(=O)N1CCC[C@H]1C(=O)N[C@@H](CCC(=O)O)C(=O)N[C@H](C(=O)N[C@@H](Cc1ccc(O)cc1)C(N)=O)[C@@H](C)O)C(C)C)[C@@H](C)O [Example 120] (H-K([γGlu-γGlu-C20 diacid])CNTATCATQRLASFLRHSSPNFGAIPSSTNVGPETY-NH2; disulfide 2-7 (inferred); N-terminus assumed)
45 | 49.8 | 49.8 | 49.8 | 49.8 | 49.8 | 49.8 | 49.8 | 5.3 | 5.3 | 5.3 |  |  | CC[C@H](C)[C@H](NC(=O)[C@H](C)NC(=O)CNC(=O)[C@H](Cc1ccccc1)NC(=O)[C@H](CC(N)=O)NC(=O)[C@@H]1CCCN1C(=O)[C@H](CO)NC(=O)[C@H](CO)NC(=O)[C@H](Cc1c[nH]cn1)NC(=O)[C@H](CCCNC(=N)N)NC(=O)[C@H](CC(C)C)NC(=O)[C@H](Cc1ccccc1)NC(=O)[C@H](CC(=O)O)NC(=O)[C@H](C)NC(=O)[C@H](CC(C)C)NC(=O)[C@H](CCCNC(=N)N)NC(=O)[C@H](CCC(N)=O)NC(=O)[C@@H](NC(=O)[C@H](C)NC(=O)[C@@H]1CSSC[C@H](NC(=O)[C@@H](N)CCCCNC(=O)CC[C@H](NC(=O)CC[C@H](NC(=O)CCCCCCCCCCCCCCCCCCC(=O)O)C(=O)O)C(=O)O)C(=O)N[C@@H](CC(N)=O)C(=O)N[C@@H]([C@@H](C)O)C(=O)N[C@@H](C)C(=O)N[C@@H]([C@@H](C)O)C(=O)N1)[C@@H](C)O)C(=O)N1CCC[C@H]1C(=O)N[C@@H](CO)C(=O)N[C@@H](CO)C(=O)N[C@H](C(=O)N[C@@H](CC(N)=O)C(=O)N[C@H](C(=O)NCC(=O)N1CCC[C@H]1C(=O)N[C@@H](CCC(=O)O)C(=O)N[C@H](C(=O)N[C@@H](Cc1ccc(O)cc1)C(N)=O)[C@@H](C)O)C(C)C)[C@@H](C)O [Example 122] (H-K([γGlu-γGlu-C20 diacid])CNTATCATQRLADFLRHSSPNFGAIPSSTNVGPETY-NH2; disulfide 2-7 (inferred); N-terminus assumed)

Reference: patent publication US9023789B2, “Amylin analogs and pharmaceutical compositions thereof” (Novo Nordisk A/S, priority 2012, dated 2015)
